The assay deals with cucumber gray mold disease fungi (Botrytis cinerea). Description: Cucumber gray mold control test. Format: in vivo. To be noted: for pest or weed control at 0.025 ppm: Compound A 0.025 ppm alone (Compound B 0 ppm); for pest or weed control at 0.0063 ppm: Compound A 0.0063 ppm alone (Compound B 0 ppm). The procedure: The compound A and the compound B were dissolved in an organic solvent and a surfactant to obtain an emulsion. The emulsion was diluted to a prescribed concentration with water. The dilute emulsion was sprayed to cotyledons of cucumber (variety: Shimoshirazu). They were naturally dried at room temperature. Thereafter, a conidiospore suspension of cucumber gray mold disease fungi (Botrytis cinerea) was dropwise inoculated. It was placed in a dark room at 20° C. and high humidity for 4 days. Appearance of disease spots on the leaves and that on untreated leaves were compared and studied, and a control ratio was calculated. The test was carried out in duplicate.
Based on the Colby's equation, a theoretical control ratio in the dilute emulsion prepared by using the compound A and the compound B together was calculated from a measured control ratio in the dilute emulsion prepared by using the compound A alone and that in the dilute emulsion prepared by using the compound B alone. Colby's equation: E=M+N−MN/100
M: measured control ratio (%) in dilute emulsion prepared by using compound A alone
N: measured control ratio (%) in dilute emulsion prepared by using compound B alone
E: theoretical control ratio (%) in dilute emulsion prepared by using compound A and compound B together
A control ratio of 0% means that disease spots of the same level as those of the non-treatment plot were observed, and a control ratio of 100% means that no disease spot was observed.
The test was carried out in the same manner as in Example 1.

[1] abbreviates: Botrytis cinerea, 96 h, read-out: Cucumber gray mold control ratio, Table 4.
The mark [2] stands for this setting: Botrytis cinerea, 96 h, read-out: Cucumber gray mold control ratio, Table 5.
[3] abbreviates: Botrytis cinerea, 96 h, Table 4, Compound B 0.4 ppm alone (Compound A 0 ppm), read-out: Cucumber gray mold control ratio.
The mark [4] stands for this setting: Botrytis cinerea, 96 h, Table 4, Compound B 1.6 ppm alone (Compound A 0 ppm), read-out: Cucumber gray mold control ratio.
The mark [5] stands for this setting: Botrytis cinerea, 96 h, Table 4, Compound B 100 ppm alone (Compound A 0 ppm), read-out: Cucumber gray mold control ratio.

Like-named read-outs stand apart in the source and are kept apart here.

For `CN(C)[C@@H]1C(O)=C(C(N)=O)C(=O)[C@@]2(O)C(O)=C3C(=O)c4c(O)cccc4[C@@](C)(O)[C@H]3[C@H](O)[C@@H]12` [Oxytetracycline, oxytetracycline], the pest or weed control at 100 µg/mL (Botrytis cinerea, 96 h, Table 5, Compound B 100 ppm alone (Compound A 0 ppm), read-out: Cucumber gray mold control ratio) is 18%. Under “Botrytis cinerea, 96 h, Table 5, Compound B 400 ppm alone (Compound A 0 ppm), read-out: Cucumber gray mold control ratio”, the pest or weed control at 400 µg/mL came out at 21%.

With `Cc1nc2c(F)c(F)ccc2cc1Oc1cccc(F)c1C(C)(C)O` [Compound A, 2-{2-[(7,8-difluoro-2-methylquinolin-3-yl)oxy]-6-fluorophenyl}propan-2-ol], the pest or weed control at 0.025 ppm amounted to 24% (Botrytis cinerea, 96 h, read-out: Cucumber gray mold control ratio, Table 1); 17% (Botrytis cinerea, 96 h, read-out: Cucumber gray mold control ratio, Table 2); 5% (Botrytis cinerea, 96 h, read-out: Cucumber gray mold control ratio, Table 3); 7% under setting [1]; 17% under setting [2]. The pest or weed control at 0.1 ppm by setting is: (Botrytis cinerea, 96 h, read-out: Cucumber gray mold control ratio, Table 1, Compound A 0.1 ppm alone (Compound B 0 ppm)) 89%; (Botrytis cinerea, 96 h, read-out: Cucumber gray mold control ratio, Table 2, Compound A 0.1 ppm alone (Compound B 0 ppm)) 48%; (Botrytis cinerea, 96 h, read-out: Cucumber gray mold control ratio, Table 3, Compound A 0.1 ppm alone (Compound B 0 ppm)) 53%; (Botrytis cinerea, 96 h, read-out: Cucumber gray mold control ratio, Table 4, Compound A 0.1 ppm alone (Compound B 0 ppm)) 26%; (Botrytis cinerea, 96 h, read-out: Cucumber gray mold control ratio, Table 5, Compound A 0.1 ppm alone (Compound B 0 ppm)) 64%. Also, the pest or weed control at 0.0063 ppm is, setting by setting: under setting [1], 10%; under setting [2], 3%.

As to `CC#Cc1cc(C)nc(Nc2ccccc2)n1` [Mepanipyrim, mepanipyrim], the pest or weed control at 0.4 µg/mL under setting [3] worked out at 19%. Also, the pest or weed control at 1.6 µg/mL under setting [4] was 29%.

As for propineb, the “Cucumber gray mold control ratio” value amounted to 27% (Table 5, Compound B 100 ppm alone (Compound A 0 ppm)) and 33% (Table 5, Compound B 400 ppm alone (Compound A 0 ppm)).

Regarding `COC(=O)N(OC)c1ccccc1COc1ccn(-c2ccc(Cl)cc2)n1` [Pyraclostrobin, pyraclostrobin], the pest or weed control at 1.6 µg/mL under setting [4] worked out at 23%. Besides, where the note is “Botrytis cinerea, 96 h, Table 4, Compound B 6.3 ppm alone (Compound A 0 ppm), read-out: Cucumber gray mold control ratio”, the pest or weed control at 6.3 µg/mL was 46%.

`Cc1ccc2nc3sc(=O)sc3nc2c1` [Chinomethionat, chinomethionat]: the pest or weed control at 100 µg/mL (Botrytis cinerea, 96 h, read-out: Cucumber gray mold control ratio, Table 5, Compound B 100 ppm alone (Compound A 0 ppm)) was 20%. Also, under “Botrytis cinerea, 96 h, read-out: Cucumber gray mold control ratio, Table 5, Compound B 400 ppm alone (Compound A 0 ppm)”, the pest or weed control at 400 µg/mL is 14%.

As for `N#Cc1sc2c(=O)c3ccccc3c(=O)c=2sc1C#N` [Dithianon, dithianon], the pest or weed control at 25 µg/mL (Botrytis cinerea, 96 h, Table 4, Compound B 25 ppm alone (Compound A 0 ppm), read-out: Cucumber gray mold control ratio) turned out to be 13%. Besides, under setting [5], the pest or weed control at 100 µg/mL came to 10%.

Turning to `C=CCNC(=O)c1c([Si](C)(C)C)sc(C)c1C` [Compound B, silthiofam], the pest or weed control at 400 ppm (Botrytis cinerea, 96 h, read-out: Cucumber gray mold control ratio, Table 1, Compound B 400 ppm alone (Compound A 0 ppm)) was 0%. Also, the pest or weed control at 6.3 ppm (Botrytis cinerea, 96 h, read-out: Cucumber gray mold control ratio, Table 2, Compound B 6.3 ppm alone (Compound A 0 ppm)) worked out at 0%. The pest or weed control at 25 ppm (Botrytis cinerea, 96 h, read-out: Cucumber gray mold control ratio, Table 2, Compound B 25 ppm alone (Compound A 0 ppm)) was 0%. Also, the pest or weed control at 100 ppm (Botrytis cinerea, 96 h, read-out: Cucumber gray mold control ratio, Table 2, Compound B 100 ppm alone (Compound A 0 ppm)) turned out to be 5%. Also, the pest or weed control at 0.1 ppm (Botrytis cinerea, 96 h, read-out: Cucumber gray mold control ratio, Table 3, Compound B 0.1 ppm alone (Compound A 0 ppm)) worked out at 0%. The pest or weed control at 0.4 ppm (Botrytis cinerea, 96 h, read-out: Cucumber gray mold control ratio, Table 3, Compound B 0.4 ppm alone (Compound A 0 ppm)) was 0%. The pest or weed control at 1.6 ppm (Botrytis cinerea, 96 h, read-out: Cucumber gray mold control ratio, Table 3, Compound B 1.6 ppm alone (Compound A 0 ppm)) turned out to be 0%.

On to `Cc1cc(C)nc(Nc2ccccc2)n1` [Pyrimethanil, pyrimethanil], for which, under setting [3], the pest or weed control at 0.4 µg/mL was 6%. Moreover, under setting [4], the pest or weed control at 1.6 µg/mL turned out to be 16%.

In the case of `CC1(C)CCC(Cc2ccc(Cl)cc2)C1(O)Cn1cncn1` (stereo not drawn) [Metconazole, metconazole], the pest or weed control at 0.4 µg/mL under setting [3] amounted to 22%. In addition, the pest or weed control at 1.6 µg/mL under setting [4] worked out at 29%.

On to `CCCC1COC(Cn2cncn2)(c2ccc(Cl)cc2Cl)O1` (stereo not drawn) [Propiconazole, propiconazole], for which the pest or weed control at 1.6 µg/mL (Botrytis cinerea, 96 h, Table 5, Compound B 1.6 ppm alone (Compound A 0 ppm), read-out: Cucumber gray mold control ratio) came out at 26%. Further, the pest or weed control at 6.3 µg/mL (Botrytis cinerea, 96 h, Table 5, Compound B 6.3 ppm alone (Compound A 0 ppm), read-out: Cucumber gray mold control ratio) stood at 42%.

With `[H]/N=C(/N)N[C@H]1[C@H](O)[C@@H](O)[C@H](O[C@@H]2O[C@@H](C)[C@](O)(C=O)[C@H]2O[C@@H]2O[C@@H](CO)[C@H](O)[C@@H](O)[C@@H]2NC)[C@@H](N/C(N)=N\[H])[C@@H]1O` [Streptomycin, streptomycin], the pest or weed control at 100 µg/mL under setting [5] was determined as 12%. Also, the pest or weed control at 400 µg/mL (Botrytis cinerea, 96 h, Table 4, Compound B 400 ppm alone (Compound A 0 ppm), read-out: Cucumber gray mold control ratio) amounted to 13%.

The values are drawn from US11553716B2, “Agricultural and horticultural fungicide composition” (Nippon Soda Co., Ltd., priority 2018, dated 2023).
